Experimental data published in US20260055138A1, “CARRIER PEPTIDE FRAGMENT AND USE THEREOF” (TOAGOSEI CO., LTD., priority 2022, published 2026).
Primed or numbered codes have the meaning given here. [ ]: non-standard residue; d: D form. FAM = 5(6)-carboxyfluorescein; FAM″ = C-terminal FAM

Each substance was assayed on HeLa cells (assay: Evaluation of cell membrane permeability by flow cytometry). Details: 10 μM, 20 hours, compared with Example 15.
Format: cell-based, human
Description: As the eukaryotic cells, HeLa cells (established cell strain derived from a human cervical cancer cell) were used and the cell membrane permeability of the samples 1 to 15 was analyzed. In Examples 1 to 15, the prepared sample solutions 1 to 15 were used, respectively, and in Example 16, the FAM solution was used.
The HeLa cell was cultured in 10% fetal bovine serum (FBS)-containing Dulbecco's modified Eagle's medium (DMEM (Cat No. 044-29765, manufactured by FUJIFILM Wako Pure Chemical Corporation)), which is a culture medium.
The HeLa cell that adhered to a culture plate was cleaned with PBS and then, a 0.25%-trypsin/EDTA solution was added thereto, and incubation was performed for three minutes at 37° C. After the incubation, the aforementioned 10% FBS-containing DMEM was added to deactivate trypsin and then, five-minute centrifugal separation was performed at 150×g to precipitate the cells. After the supernatant generated by the centrifugal separation was removed, the 10% FBS-containing DMEM was added to the precipitate (cell pellet) to prepare a cell suspension of about 2×10^5 cells/mL. The cell suspension was added by 1 mL to a well of a commercially available six-hole (well) plate (manufactured by AGC TECHNO GLASS Co., Ltd.) so as to seed the cell (about 2×10^5 cells/well). In addition, the 2 mM sample solution 1 was diluted with the 10% FBS-containing DMEM to prepare the sample solution 1 in which the concentration of the sample 1 was 20 μM. Then, 1 mL of the 20 μM sample solution 1 was added to the well (that is, so that the concentration of the sample 1 became 10 μM and the DMSO concentration became 0.5% in the culture solution in the well). After that, the cell was incubated for 20 hours at 37° C. under a 5% CO2 condition.
After the 20-hour incubation, the culture supernatant was removed from the well and the cells in the well were cleaned twice with 1 mL of PBS. Next, 200 μL of the 0.25% trypsin/EDTA solution was added to the well and the incubation was performed for three minutes at 37° C. After the incubation, 400 μL of the 10% FBS-containing DMEM was added to the well to deactivate the trypsin. Subsequently, the cell suspension in the well was transferred to a tube and the cells were collected. After that, 600 μL of PBS was added further to the well to clean the well. Then, PBS in the well was transferred to the tube, so that the cells remaining in the well were collected in the tube. This tube was subjected to five-minute centrifugal separation at 4° C. under a condition of 210×g. After the centrifugal separation, the supernatant was removed and the precipitate (cell pellet) was suspended (cleaned) with 1 mL of PBS, which was followed by the centrifugal separation under the same condition as that described above. After this operation was repeated twice, the supernatant was removed and thus, the cells (cell pellet) cultured in a culture medium containing the sample 1 were obtained.
Regarding the obtained cells (cell pellet), the cell membrane permeability of the sample 1 was analyzed using a flow cytometer. As the flow cytometer, On-Chip Flowcytometer (manufactured by On-Chip Biotechnologies Co., LTD.) was used.
For such an analysis, the obtained cell pellet was suspended with 100 μL of on-chip T buffer to prepare a cell suspension for analysis.
Using the aforementioned flow cytometer, gating based on forward scatter (FSC) and side scatter (SSC) was performed to set a gate about a cell group to be analyzed, and the fluorescence intensity was measured about the cell group in this gate. Note that the analysis was performed so that the cell group contained at least 10000 cells. The fluorescence intensity was measured using a fluorescence detector FL2 of the flow cytometer (optimum detection wavelength around 543 nm) capable of detecting the fluorescence wavelength of FAM. […]

Ac-KKRTLRKSNRKkR-FAM [Example 12] was tested. Which “value of MFI, comparison in words” value did it give?
The value was “high in particular”.

Same assay, conditions: construct (additive) 10 μM, 0.5% DMSO in culture solution, 20 hours incubation at 37° C., FAM fluorescence, detector FL2

“Ac-KKRTLRKsNRKKR-FAM (Ac-KKRTLRK[dS]NRKKR-{FAM″}) [Example 8]” was tested. Which “MFI (median fluorescence intensity)” value did it give?
The value was 14.3.

With “Ac-KKRTLRKSNRkKR-FAM (Ac-KKRTLRKSNR[dK]KR-{FAM″}) [Example 11]” as the substance, how does the “MFI (median fluorescence intensity)” value read?
The value was 17.4.

Which “MFI (median fluorescence intensity)” value does the source give for “Ac-KKRTlRKSNRKKR-FAM (Ac-KKRT[dL]RKSNRKKR-{FAM″}) [Example 5]” here?
Its value is 16.5.

With Ac-KKRTLRKSNRKkR-FAM [Example 12] as the substance, how does the “MFI (median fluorescence intensity)” value read?
Its value is 33.8.

“Ac-kKRTLRKSNRKKR-FAM (Ac-[dK]KRTLRKSNRKKR-{FAM″}) [Example 1]” was tested. Which “MFI (median fluorescence intensity)” value did it give?
Its value is 13.9.

“Ac-KkRTLRKSNRKKR-FAM (Ac-K[dK]RTLRKSNRKKR-{FAM″}) [Example 2]” was tested. Which “MFI (median fluorescence intensity)” value did it give?
Its value is 14.1.

How did the “MFI (median fluorescence intensity)” value turn out when “Ac-KKRtLRKSNRKKR-FAM (Ac-KKR[dT]LRKSNRKKR-{FAM″}) [Example 4]” was run?
Its value is 15.9.

For “Ac-KKRTLRKSNRKKr-FAM (Ac-KKRTLRKSNRKK[dR]-{FAM″}) [Example 13]”, which “MFI (median fluorescence intensity)” value is on record?
Its value is 15.2.

With “Ac-KKRTLRKSnRKKR-FAM (Ac-KKRTLRKS[dN]RKKR-{FAM″}) [Example 9]” as the substance, how does the “MFI (median fluorescence intensity)” value read?
The value was 15.6.

Which “MFI (median fluorescence intensity)” value does the source give for “Ac-KKRTLRKSNRKKR-FAM [Example 7] (Ac-KKRTLR[dK]SNRKKR-{FAM})” here?
The value was 16.9.

With “Ac-KKRTLRKSNrKKR-FAM (Ac-KKRTLRKSN[dR]KKR-{FAM″}) [Example 10]” as the substance, how does the “MFI (median fluorescence intensity)” value read?
The value was 15.5.

Ac-KKRTLrKSNRKKR-FAM [Example 6] was tested. Which “MFI (median fluorescence intensity)” value did it give?
Its value is 17.5.

“Ac-kkrtlrksnrkkr-FAM (Ac-[dK][dK][dR][dT][dL][dR][dK][dS][dN][dR][dK][dK][dR]-{FAM″}) [Example 14]” was tested. Which “MFI (median fluorescence intensity)” value did it give?
The value was 16.1.

“Ac-KKRTLRKSNRKKR-FAM [Example 15] (Ac-KKRTLRKSNRKKR-{FAM″}) [reference compound]” was tested. Which “MFI (median fluorescence intensity)” value did it give?
Its value is 13.0.

With “Ac-KKrTLRKSNRKKR-FAM (Ac-KK[dR]TLRKSNRKKR-{FAM″}) [Example 3]” as the substance, how does the “MFI (median fluorescence intensity)” value read?
The value was 13.9.

For “5(6)-carboxyfluorescein [Example 16, reference compound]”, which “MFI (median fluorescence intensity)” value is on record?
The value was 10.6.
